“Also recorded” adds a separate entry of the source. Where a SMILES comes first, the peptide text is derived from it. [ ]: non-standard residue; d: D form. dPhe(4-F) = N[C@H](Cc1ccc(F)cc1)C(=O)O
Legend:
transgenic AD mice = details: oral administration with drinking water; cited from earlier work
Abeta fibrils [1] = biological target: T1, Abeta fibrils (Homo sapiens, UniProt P05067); test: Peptide microarray, binding of FITC Abeta fibrils to immobilized peptides; details: 1 hour at room temperature, control subtracted, averaged
T1 construct: Pre-incubated Abeta was co-incubated with the peptides
T1 sequence (P05067 672-713 limits assumed): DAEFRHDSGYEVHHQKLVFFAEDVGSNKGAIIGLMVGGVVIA
Procedure: (§1) The procedure for identifying peptides that bind specifically to amyloid beta monomer or specifically to amyloid beta oligomers and for determining the binding specificity of peptides within the meaning of the present invention can thus be as follows. Peptide microarrays comprising various peptides immobilized on a surface, such as derivatives of D3, are each incubated with different species of Abeta (such as monomers, oligomers and fibrils) labeled with a fluorescent dye. A peptide microarray is incubated with only the fluorescent dye to serve as the control. So as to ensure the reproducibility of the results, the incubation of the peptide microarrays can be carried out at least three times for each species. The binding of the fluorescence-labeled Abeta to the immobilized peptides is detected by way of the fluorescent dye. The more Abeta binds to the peptide, the higher the fluorescence signal is. The measured fluorescence signals of the reproductions are standardized, and the […]. This avoids binding of the fluorescence-labeled Abeta via the dye. The binding signals of an Abeta species to a peptide are then averaged. So as to determine the binding specificity, the quotient of the species to which the peptide is to specifically bind and another species is found.
(§2) Pretreatment of the peptide microarray slides: • briefly dip 3× in ethanol (96%) and then wash with H2O (30 minutes) • briefly dry by way of centrifuging
Preparation of fibrils: • incubate Abeta over 3 days, centrifuge, discard supernatant and resuspend in buffer (repeat 3 times)
(§3) Carrying out the peptide microarray: • incubate with FITC Abeta monomers, oligomers, fibrils and FITC for 1 hour at room temperature • wash: TBS-T briefly 3× (only TBS-T buffer is replaced), 3×10 minutes in a flacon, 3×H2O, 3×10 minutes • dry by way of centrifugation • The binding of the fluorescence-labeled Abeta to the immobilized peptides is detected by way of the fluorescent dye using the microarray reader FLA800 from Fuji Film. The more Abeta binds to the peptide, the higher is the fluorescence signal. • carrier set mode: slides • resolution: 10 μm • scan mode: high sensitivity (slow): scan pixel at 200 mm/s • laser: 473 nm • filter: 530 DF 20 • photomultiplier tube (PMT) HV (%): 100 • images were stored as .tif files
(§4) The software, AIDA Metrix, from Raytest was used to evaluate the fluorescence signals:
(§5) To ensure the reproducibility of the results, the incubation of the peptide microarrays is carried out at least three times for each species.
(§6) The measured fluorescence signals of the reproductions are standardized using a median-based standardization, and the control was subtracted from the signal. This avoided the binding of the fluorescence-labeled Abeta via the dye.
(§7) The binding signals of an Abeta species to a peptide were averaged.

Abeta oligomers [2] = biological target: T2, Abeta oligomers (Homo sapiens, UniProt P05067); test: QIAD method, elimination of Abeta oligomers (density gradient centrifugation, RP-HPLC); format: biochemical; details: for Elimination of Abeta oligomers: ratio of Abeta to peptide of 8:1, fractions 4-6, FIG. 2; for Elimination of Abeta oligomers compared to D3: ratio of Abeta to peptide of 8:1, FIG. 2
T2 sequence (P05067 672-713 limits assumed): as above
Procedure: Using the QIAD method for the quantitative characterization of amyloid peptides and/or proteins in a sample, it was possible to quantify the properties of the substances. Pre-incubated Abeta was co-incubated with the peptides. The different Abeta species were separated by way of density gradient centrifugation and quantified in the individual fractions by way of RP-HPLC Abeta. The elimination of the Abeta oligomers in fractions 4-6 was analyzed.

Abeta monomers = biological target: T3, Abeta monomers (Homo sapiens, UniProt P05067); test: Peptide microarray, binding of FITC Abeta monomers to immobilized peptides; details: for Binding specificity monomer to fibrils: quotient binding signal to monomers / binding signal to fibrils; for Binding specificity monomer to oligomer: quotient binding signal to monomers / binding signal to oligomers
T3 construct: incubate with FITC Abeta monomers, oligomers, fibrils and FITC for 1 hour at room temperature
T3 sequence (P05067 672-713 limits assumed): as above
Procedure: as §1, §2
(§8) Preparation of monomers and oligomers: • size exclusion chromatography according to Johansson et al. 2006 (Johansson, A.-S. et al. Physiochemical characterization of the Alzheimer's disease-related peptides Aβ1-42Arctic and Aβ1-42 wt. FEBS Journal 273, 2618-2630 (2006)). • oligomers were fractionated at 8-9 ml, monomers at 16-17 ml.
as §3, §4, §5, §6, §7
So as to determine the binding specificity, the quotient of the species to which the peptide is to specifically bind and another species is created.
Example: binding specificity of peptide X to Abeta monomers=binding signal of peptides X to monomers/binding signal of peptides X to oligomers.

Abeta oligomers [3] = biological target: T2, Abeta oligomers; test: Peptide microarray, binding of FITC Abeta oligomers to immobilized peptides; details: 1 hour at room temperature, control subtracted, averaged
Procedure: as §1, §2, §8, §3, §4, §5, §6, §7

SH-SY5Y cells [4] = test: MTT assay on SH-SY5Y cells with Abeta co-incubation; format: cell-based; details: for Reduction of the toxicity caused by Abeta: co-incubating Abeta with peptide in various concentrations, FIG. 4b; for Reduction of Abeta toxicity compared to D3: respective concentration with D3, FIG. 4b
Excerpt: (§9) No noteworthy toxicity of the peptides according to the invention in therapeutically relevant concentrations was established in the MTT assay on SH-SY5Y cells known to a person skilled in the art (FIG. 4). […] Based on current knowledge, Abeta oligomer is the toxic species.
(§10) The significances are based on the respective concentration with D3 (* p≤0.05; ** p≤0.01; *** p≤0.001; n. s. not significant).

SH-SY5Y cells [5] = test: MTT assay on SH-SY5Y cells without Abeta co-incubation; format: cell-based; details: FIG. 4a
Excerpt: as §9, §10

Abeta fibrils [6] = biological target: T1, Abeta fibrils; test: ThT assay, formation of ThT positive Abeta fibrils; format: biochemical; details: for ThT fluorescence during the entire measuring time period: 48 hours, co-incubation with Abeta, FIG. 3

Molecule	Cognitive abilities of treated transgenic AD mice (transgenic AD mice)	Plaque in treated transgenic AD mice (transgenic AD mice)	Binding signal to Abeta fibrils (Abeta fibrils [1])	Elimination of Abeta oligomers (Abeta oligomers [2])	Binding specificity with respect to Abeta monomer (Abeta monomers; FIG. 1b, quotient of binding signals)	Binding signal to Abeta monomers (Abeta monomers; peptide microarray, FITC Abeta, 1 hour at room temperature, control subtracted, averaged)	Binding specificity monomer to fibrils (Abeta monomers)	Binding specificity monomer to oligomer (Abeta monomers)	Binding signal to Abeta oligomers (Abeta oligomers [3])	Reduction of the toxicity caused by Abeta (SH-SY5Y cells [4])	Toxic effect of the peptide alone on the cells (SH-SY5Y cells [5])	Elimination of Abeta oligomers compared to D3 (Abeta oligomers [2])	ThT fluorescence during the entire measuring time period (Abeta fibrils [6])	ThT fluorescence (Abeta fibrils [6]; after 48 hours)	ThT fluorescence as % of the ThT fluorescence of Abeta control (Abeta fibrils [6]; after 48 hours)	Reduction of Abeta toxicity compared to D3 (SH-SY5Y cells [4])
rprtrlhthrnr [D3, reference compound]	significantly improved cognitive abilities	considerably less plaque	0.8 rfu	50±10%	less than 1	0.5 rfu	0.6	0.8	0.6 rfu							
CC[C@@H](C)[C@@H](NC(=O)[C@@H](Cc1c[nH]cn1)NC(=O)[C@H](NC(=O)[C@@H](Cc1ccc(F)cc1)NC(=O)[C@@H](CC(C)C)NC(=O)[C@@H](CCCNC(=N)N)NC(=O)[C@H](NC(=O)[C@@H](CCCNC(=N)N)NC(=O)[C@@H](CCCCN)NC(=O)[C@H](N)CCCNC(=N)N)C(C)C)[C@H](C)O)C(=O)N[C@H](CCCCN)C(=O)N[C@H](CCCNC(=N)N)C(N)=O [ANK7, rkrvrl02thikr] (H-[dR][dK][dR][dV][dR][dL][dPhe(4-F)][dT][dH][dI][dK][dR]-NH2)				73±1%			6.8	6.4		reduced; also recorded: reduction in the Abeta toxicity was achieved	do not have a toxic effect	significantly more efficiently than D3	slight increase			
CC(C)C[C@@H](NC(=O)[C@@H](CCCNC(=N)N)NC(=O)[C@H](NC(=O)[C@@H](CCCNC(=N)N)NC(=O)[C@@H](CCCCN)NC(=O)[C@H](N)CCCNC(=N)N)C(C)C)C(=O)N[C@@H](C(=O)N[C@H](Cc1ccc(O)cc1)C(=O)N[C@H](Cc1c[nH]cn1)C(=O)N[C@H](CCCCN)C(=O)N[C@H](CCCCN)C(=O)N[C@H](CCCNC(=N)N)C(N)=O)C(C)C [ANK5, rkrvrlvyhkkr] (H-[dR][dK][dR][dV][dR][dL][dV][dY][dH][dK][dK][dR]-NH2)				72±2%			2.2	5.9		reduced; also recorded: reduction in the Abeta toxicity was achieved	do not have a toxic effect	significantly more efficiently than D3		1029 rfu	53%	
CC[C@@H](C)[C@@H](NC(=O)[C@@H](CCCNC(=N)N)NC(=O)[C@@H](CCCCN)NC(=O)[C@H](N)CCCNC(=N)N)C(=O)N[C@H](CCCNC(=N)N)C(=O)N[C@H](CC(C)C)C(=O)N[C@@H](C(=O)N[C@H](Cc1ccc(O)cc1)C(=O)N[C@H](Cc1c[nH]cn1)C(=O)N[C@H](Cc1c[nH]c2ccccc12)C(=O)N[C@H](CC(N)=O)C(=O)N[C@H](CCCNC(=N)N)C(N)=O)C(C)C [ANK4, rkrirlvyhwnr] (H-[dR][dK][dR][dI][dR][dL][dV][dY][dH][dW][dN][dR]-NH2)				59±16%			4.3	3.3		reduced; also recorded: reduction in the Abeta toxicity was achieved	do not have a toxic effect		slight increase			more efficient
CC[C@@H](C)[C@@H](NC(=O)[C@@H](CCCNC(=N)N)NC(=O)[C@@H](CCCCN)NC(=O)[C@H](N)CCCNC(=N)N)C(=O)N[C@H](CCCNC(=N)N)C(=O)N[C@H](CC(C)C)C(=O)N[C@@H](C(=O)N[C@@H](C(=O)N[C@H](CCCCN)C(=O)N[C@H](CCCCN)C(=O)N[C@H](CCCCN)C(=O)N[C@H](CCCNC(=N)N)C(N)=O)[C@H](C)O)C(C)C [ANK6, rkrirlvtkkkr] (H-[dR][dK][dR][dI][dR][dL][dV][dT][dK][dK][dK][dR]-NH2)				81±3%			1.9	4.1		reduced; also recorded: reduction in the Abeta toxicity was achieved	do not have a toxic effect	significantly more efficiently than D3	slight increase			more efficient

Reference: patent US10174097B2, “Specific A-beta species-binding peptides for the therapy and/or diagnosis of Alzheimer's dementia” (Forschungszentrum Juelich GmbH, priority 2015, dated 2019)
